{"source": "patent US20220275329A1", "about": "“COMPOSITIONS AND METHODS FOR MATURING STEM CELL-DERIVED BETA CELLS” (President and Fellows of Harvard College, priority 2019, published 2022)", "key": {"mTORC1 [1]": {"tested_on": "mTORC1", "test": "p-S6 FACS staining of beta cells in isolated human islets (mTORC1 activation)", "type": "cell-based", "settings": "for effect on mTORC1 activity (p-S6) in mature beta cells: human islets, 30 minute incubation in RPMI", "description": "Insulin-expressing beta cells appear around embryonic day 13.5 (E13.5) in mice and week 8 and 9 post-conception in humans (Pan and Wright, 2011; Slack, 1995), but glucose-stimulated insulin secretion (GSIS) has been observed only days after birth (Blum et al., 2012). Since a major change from embryonic to postnatal physiology is nutrient consumption, it was predicted that nutrients and nutrient sensing by mTORC1 could have a role in the transition from immature to mature insulin secretion by beta cells. To explore that, the nutrient sensitivity and dynamics of mTORC1 in isolated mature human and mouse islets was first examined.\n(§1) Differentiated cell clusters or islets were dispersed into single-cell suspension by incubation in TrypLE Express (Invitrogen) at 37° C. until clusters dissociated to single cells upon mixing by pipetting gently up and down (typically 10-15 min). Cells were spun down for 3 min at 1000 rpm, washed once in PBS (1 mL) and transferred to a 1.7 ml microcentrifuge tube (Bioscience; 11510). Cells were resuspended in perm/fix solution and incubated for 10 min (BD 554714). Cells were then washed once in perm/wash for 15 min (BD 554714).\nCells were then resuspended in perm/wash with primary antibodies and incubated at 4° C. overnight. Primary antibodies, diluted 1:300 unless otherwise noted: Mouse anti-Nkx6.1, rat anti-insulin (pro-)IC-peptide, mouse anti-glucagon, rabbit anti-phospho-S6 Ribosomal Protein (Ser240/244). Cells were washed twice in blocking buffer and then incubated in perm/wash buffer with secondary antibodies for 2 hr (protected from light). Secondary antibodies conjugated to Alexa Fluor 405, 488 or 647 (Life Technologies) were used to visualize primary antibodies. Cells were then washed 3 times in perm/wash solution and finally resuspended in 500-700 μl, filtered through a 40 μm nylon mash into flow cytometry tubes (BD Falcon; 352235), and analyzed using the LSR-II flow cytometer (BD Biosciences) with at least 30,000 events recorded. Analysis of the results was performed using FlowJo software. […]"}, "mTORC1 [2]": {"tested_on": "mTORC1", "test": "p-S6 FACS staining of beta cells in isolated mouse islets (mTORC1 activation)", "type": "cell-based", "description": "as §1\nCells were then resuspended in perm/wash with primary antibodies and incubated at 4° C. overnight. Primary antibodies, diluted 1:300 unless otherwise noted: Mouse anti-Nkx6.1, rat anti-insulin (pro-)IC-peptide, mouse anti-glucagon, rabbit anti-phospho-S6 Ribosomal Protein (Ser240/244). […] Cells were then washed 3 times in perm/wash solution and finally resuspended in 500-700 μl, filtered through a 40 μm nylon mash into flow cytometry tubes (BD Falcon; 352235), and analyzed using the LSR-II flow cytometer (BD Biosciences) with at least 30,000 events recorded. […]\nFor flow cytometry, mouse islets were dissociated into a single-cell suspension with trypsin/EDTA treatment for 5 minutes at 37° C., followed by treatment with a cell fixation and permeabilization solution (BD Pharmingen). Stained cells were analyzed on a MACSQuant Analyzer (DAKO). […]"}, "mTORC1 [3]": {"tested_on": "mTORC1", "test": "p-S6 immunostaining of pancreatic islets of fasted mice injected with nutrients", "type": "in vivo, mouse", "settings": "overnight fasted mice, injection", "description": "To assess this, mTORC1 activation was analyzed in the islets of fasted mice upon injection with glucose and/or leucine. […] Alpha cells activate the pathway in the presence of amino acids (likely supplied from autophagy) and the absence of glucose (e.g., during fasting), whereas beta cells activate mTORC1 merely following glucose consumption and insulin secretion during feeding (FIG. 1H).\nTo test the nutrient sensitivity of mTORC1 in beta cells in vivo, glucose was injected into neonates and their pancreata was dissected.\nTissue processing for tissue section staining was performed as previously described {Nir, 2007 #3232}, using the following antibodies: insulin (DakoCytomation), Ki67 (NeoMarkers RM9106S0), Pdx1 (gift from Christopher Wright, Vanderbilt University), Nkx6.1 (β-cell Biology Consortium), Chga (Novus NB120-15160) human p16 (Abcam ab108349 and BD Pharmingen 551153), p21 (Santa Cruz Biotechnology sc-397), Lamp2a (Abcam ab18528), pS6 (Cell Signaling 5364), E-cadherin (BD Pharmingen 610182), Atp5a (Abcam ab14748), Cox17 (Novus NBP1-19696) and Ndufb (Sigma-Aldrich HPA005640). Secondary antibodies were from Jackson ImmunoResearch Laboratories. […] To calculate cell size on tissue sections, the circumference of E-Cadherin-stained cells was determined using Image J Software. >100 cells from 6 mice were scored for each group. […]"}, "mTORC1 [4]": {"tested_on": "mTORC1", "test": "p-S6 immunostaining of kidney capsule transplants of SC-beta cells in mice injected with nutrients", "type": "in vivo", "settings": "two months after transplantation, fasted recipient mouse, injection", "description": "Having insight into the nutrient sensitivity of mTORC1 in immature and mature beta cells, the next question was whether changing the environment of the SC-beta cells would change mTORC1 sensitivity to nutrients and its dynamics (FIG. 3A). SC-beta cells were collected from the final stage of the differentiation protocol and transplanted into mice for a period of two months, until reaching a stable functional state. […] All animal experiments were performed in accordance with Harvard University […] Animal Care and Use Committee regulations. Cell transplantations into immunodeficient SCID-Beige mice (Jackson Laboratory) were conducted as described previously with minor modifications. SC-beta cell clusters were resuspended in RPMI-1640 medium (Life Technologies; 11875-093), aliquoted into PCR tubes and kept on ice until loading into a catheter for cell delivery under the mouse kidney capsule. Mice were anesthetized with 0.5 ml/25 g 1.25% Avertin/body weight, and the left […] kidney site was shaved and disinfected with betadine and alcohol. A 1 cm incision was made to expose the kidney, followed by insertion of the catheter needle and injection of the cell clusters. […] Wound clips were removed 14 days post-surgery and mice were monitored twice a week. […]"}, "SC-beta cells": {"tested_on": "SC-beta cells", "test": "Glucose stimulated insulin secretion (GSIS) assay of SC-beta cells", "type": "cell-based, human", "description": "(§2) The hPSC line HUES8 (NIH human embryonic stem cell registry #0021) was used for all experiments. Undifferentiated HUES8 cells were maintained in supplemented mTeSR1 medium (StemCell Technologies) in 500 ml spinner flasks (Coming) set at a 70 rpm rotation rate in a 37° C. 5% CO2 incubator. Directed differentiation into SC-β cells was conducted as described previously with minor modifications. Briefly, 150 million cells were seeded in 300 ml mTeSR1 +10 μM ROCK Inhibitor Y27632, fed with mTeSR1 48 h later, and 72 h later stepwise differentiation stages were induced by the following treatments: DE stage: 24 h in S1 medium +100 ng/ml ActivinA +[…] CHIR99021, followed by 48 h in the same medium without CHIR99021. PGT stage: 72 h in S2 medium +50 ng/ml KGF. PP1 stage: 24 h in S3 medium +50 ng/ml KGF +0.25 μM Sant1 +2 μM Retinoic acid (RA) +500 nM PDBU +10 μM Y27632 +200 nM LDN193189, followed by 24 h in the same medium without LDN193189. PP2 stage: 6 days in S3 medium +50 ng/ml KGF +0.25 uM Sant1 +0.1 μM Retinoic acid (RA) +10 μM Y27632 +5 ng/ml ActivinA. […]\nIslets were isolated from whole pancreata using Collagenase P (Roche) injected to the pancreatic duct followed by Histopaque gradient (Sigma). […] Insulin levels were measured by ELISA (Alpco). […] Normalization was done to β-cell number in each sample (pooled from 4 or more mice) scored by FACS following staining for insulin."}, "mTORC1 [5]": {"tested_on": "mTORC1", "test": "p-S6 staining of SC-beta cells (mTORC1 activity)", "type": "cell-based, human", "description": "as §2, with “LDN193189.” for “LDN193189. PP2 stage: 6 days in S3 medium +50 ng/ml KGF +0.25 uM Sant1 +0.1 μM Retinoic acid (RA) +10 μM Y27632 +5 ng/ml ActivinA.”\nCells were then resuspended in perm/wash with primary antibodies and incubated at 4° C. overnight. […] Cells were then washed 3 times in perm/wash solution and finally resuspended in 500-700 μl, filtered through a 40 μm nylon mash into flow cytometry tubes (BD Falcon; 352235), and analyzed using the LSR-II flow cytometer (BD Biosciences) with at least 30,000 events recorded. […]"}}, "note": "“Also recorded” adds a separate entry of the source."}
{"compound": "CC1=NS(=O)(=O)c2cc(Cl)ccc2N1", "note": "[diazoxide]", "values": [{"measurement": "effect on mTORC1 activity (p-S6) in mature beta cells", "setting": "mTORC1 [1]", "result": "inhibits mTORC1 activation; also recorded: dramatically reduces mTORC1 activity in beta cells"}, {"measurement": "effect on mTORC1 activation (p-S6) in immature beta cells from mice of indicated age", "setting": "mTORC1 [2]; RPMI with glucose and amino acids, 30 minute incubation", "result": "inhibits mTORC1 activation only at P5; also recorded: does not affect mTORC1 activation"}]}
{"compound": "CC(C)C[C@H](N)C(=O)O", "note": "[leucine]", "values": [{"measurement": "effect on mTORC1 activity (p-S6) in mature beta cells", "setting": "mTORC1 [1]", "result": "amplifies the response to glucose in beta cells; also recorded: sufficient to fully activate the beta cell mTORC1 pathway in the presence of glucose"}, {"measurement": "mTORC1 activation (p-S6) in beta cells of adult mice", "setting": "mTORC1 [3]", "result": "not sufficient to activate the pathway"}, {"measurement": "mTORC1 pathway activation (p-S6) in transplanted SC-beta cells", "setting": "mTORC1 [4]", "result": "remains inactive"}]}
{"compound": "CCC(=O)N1CCN(c2ccc(-n3c(=O)ccc4cnc5ccc(-c6cnc7ccccc7c6)cc5c43)cc2C(F)(F)F)CC1", "note": "[Torin1]", "values": [{"measurement": "effect on mTORC1 activity (p-S6) in mature beta cells", "setting": "mTORC1 [1]", "result": "inhibited"}, {"measurement": "GSIS of SC-beta cells grown in indicated conditions", "setting": "SC-beta cells; low (2.8 mM) and high (16.7 mM) glucose for 1 h", "result": "increases their GSIS"}, {"measurement": "insulin secretion in dynamic GSIS assay", "setting": "SC-beta cells; nonresponsive SC-beta cells treated for 48 hours, low 2.8 mM, high 16.7 mM glucose", "result": "induced insulin secretion in response to glucose"}, {"measurement": "effect on enhanced mTORC1 signaling (phosphorylation of p-S6) in nonresponsive SC-beta cells", "setting": "mTORC1 [5]; glucose-nonresponsive SC-beta cells", "result": "repressed"}, {"measurement": "effect on mTORC1 activity (p-S6) of SC-beta cells cultured in a high nutrient environment", "setting": "mTORC1 [5]; rich RPMI media", "result": "repressed"}]}
{"compound": "Exendin-4", "values": [{"measurement": "effect on mTORC1 activity (p-S6) in mature beta cells", "setting": "mTORC1 [1]", "result": "increased"}, {"measurement": "effect on mTORC1 activity (p-S6) in mature beta cells", "setting": "mTORC1 [1]; listed as exendin4", "result": "strongly activate mTORC1 in beta cells"}, {"measurement": "effect on mTORC1 activity suppressed by diazoxide in beta cells", "setting": "mTORC1 [1]; in the presence of diazoxide, glucose and amino acids", "result": "rescued"}]}
{"compound": "insulin", "values": [{"measurement": "effect on mTORC1 activity (p-S6) in mature beta cells", "setting": "mTORC1 [1]", "result": "not mimicked; also recorded: neither stimulation with insulin nor stimulation with insulin and amino acids was able to activate mTORC1 in beta cells"}, {"measurement": "effect on mTORC1 activation (p-S6) in mouse beta cells", "setting": "mTORC1 [2]; mouse islets, 30 minutes incubation in RPMI with indicated nutrients", "result": "do not affect mTORC1 activation in beta cells"}]}
